Assay results as given in PubChem BioAssay AID330 (DTP/NCI, 2004).
Several values for one entry are separate records, joined by “and”; a condition that tells them apart may be missing. Identical values can stand only once. Inconclusive results and toxic doses are left out.

System: P388 leukemia ip, CD2F1 mice, survival T/C
Assay: NCI In Vivo Anticancer Drug Screen. Data for tumor model P388 Leukemia (intraperitoneal) in CD2F1 (CDF1) mice
Conditions: endpoint: median survival time, higher = longer survival
Summary of the method: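 Mice carrying the transplanted tumor received test compound or vehicle. Survival was recorded in each group, and the value is the treated-group measurement divided by that of the vehicle-treated control group.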

[1] = dose: 100.0 mg/kg/injection, schedule: Q01DX001 (ip), vehicle: saline with Tween-80
[2] = dose: 200.0 mg/kg/injection, schedule: Q01DX001 (ip), vehicle: saline with Tween-80
[3] = dose: 400.0 mg/kg/injection, schedule: Q01DX001 (ip), vehicle: saline with Tween-80
[4] = dose: 25.0 mg/kg/injection, schedule: Q01DX009 (ip), vehicle: saline with Tween-80
[5] = dose: 50.0 mg/kg/injection, schedule: Q01DX009 (ip), vehicle: saline with Tween-80
[6] = dose: 60.0 mg/kg/injection, schedule: Q01DX005 (ip), vehicle: Klucel (hydroxypropylcellulose) (HPC)
[7] = dose: 60.0 mg/kg/injection, schedule: Q01DX005 (ip), vehicle: saline with Tween-80
[8] = dose: 120.0 mg/kg/injection, schedule: Q01DX005 (ip), vehicle: saline with Tween-80
[9] = dose: 50.0 mg/kg/injection, schedule: Q01DX009 (ip), vehicle: Klucel (hydroxypropylcellulose) (HPC)
[10] = dose: 100.0 mg/kg/injection, schedule: Q01DX009 (ip), vehicle: Klucel (hydroxypropylcellulose) (HPC)
[11] = dose: 200.0 mg/kg/injection, schedule: Q01DX009 (ip), vehicle: Klucel (hydroxypropylcellulose) (HPC)

Structure (SMILES): CCSc1cccc2nnc(C(C)(C)C)n12
- T/C [1]: 98 % of control
- T/C [2]: 99 % of control
- T/C [3]: 97 % of control

Structure (SMILES): CC(=O)c1ccc(NC(O)C(Cl)(Cl)Cl)cc1 (stereo not drawn)
- T/C [4]: 99 % of control
- T/C [5]: 96 % of control
- T/C (dose: 100.0 mg/kg/injection, schedule: Q01DX009 (ip), vehicle: saline with Tween-80): 103 % of control
- T/C (dose: 200.0 mg/kg/injection, schedule: Q01DX009 (ip), vehicle: saline with Tween-80): 107 % of control

Structure (SMILES): COc1cc(NS(C)(=O)=O)ccc1Nc1c2ccc(N(C)C)cc2nc2cc(N(C)C)ccc12
- T/C (dose: 7.5 mg/kg/injection, schedule: Q01DX005 (ip), vehicle: Klucel (hydroxypropylcellulose) (HPC)): 162 % of control
- T/C (dose: 15.0 mg/kg/injection, schedule: Q01DX005 (ip), vehicle: Klucel (hydroxypropylcellulose) (HPC)): 168 % of control and 173 % of control
- T/C (dose: 30.0 mg/kg/injection, schedule: Q01DX005 (ip), vehicle: Klucel (hydroxypropylcellulose) (HPC)): 174 % of control and 182 % of control
- T/C [6]: 98 % of control and 86 % of control

Structure (SMILES): CCOC(=O)Nc1c2ccccc2c(NC(=O)OCC)c2ccccc12
- T/C (dose: 50.0 mg/kg/injection, schedule: Q01DX001 (ip), vehicle: saline with Tween-80): 105 % of control
- T/C [1]: 100 % of control
- T/C [2]: 102 % of control
- T/C [3]: 96 % of control

Structure (SMILES): COc1ccc(C2C3CCCC(C3=O)C(c3ccc(OC)cc3)N2C)cc1 (stereo not drawn)
- T/C (dose: 100.0 mg/kg/injection, schedule: Q04DX003 (ip), vehicle: saline): 99 % of control
- T/C (dose: 200.0 mg/kg/injection, schedule: Q04DX003 (ip), vehicle: saline): 97 % of control
- T/C (dose: 400.0 mg/kg/injection, schedule: Q04DX003 (ip), vehicle: saline): 96 % of control

Structure (SMILES): ONC1=Nc2ccccc2OCCOc2ccccc2N=C1NO
- T/C (dose: 50.0 mg/kg/injection, schedule: Q01DX005 (ip), vehicle: Klucel (hydroxypropylcellulose) (HPC)): 100 % of control
- T/C (dose: 100.0 mg/kg/injection, schedule: Q01DX005 (ip), vehicle: Klucel (hydroxypropylcellulose) (HPC)): 100 % of control
- T/C (dose: 200.0 mg/kg/injection, schedule: Q01DX005 (ip), vehicle: Klucel (hydroxypropylcellulose) (HPC)): 96 % of control

Structure (SMILES): CC1CNC2(c3ccccc3)CSC=C(c3ccccc3)N12 (stereo not drawn)
- T/C (dose: 100.0 mg/kg/injection, schedule: Q04DX002 (ip), vehicle: saline with Tween-80): 98 % of control
- T/C (dose: 200.0 mg/kg/injection, schedule: Q04DX002 (ip), vehicle: saline with Tween-80): 101 % of control
- T/C (dose: 400.0 mg/kg/injection, schedule: Q04DX002 (ip), vehicle: saline with Tween-80): 102 % of control

Structure (SMILES): CC(C)=CCC1=C(C)C(=O)C(C)=C(C)C1=O
- T/C (dose: 12.5 mg/kg/injection, schedule: Q01DX009 (ip), vehicle: distilled water + Tween-80 + alcohol): 100 % of control
- T/C (dose: 25.0 mg/kg/injection, schedule: Q01DX009 (ip), vehicle: distilled water + Tween-80 + alcohol): 98 % of control
- T/C (dose: 50.0 mg/kg/injection, schedule: Q01DX009 (ip), vehicle: distilled water + Tween-80 + alcohol): 100 % of control
- T/C (dose: 100.0 mg/kg/injection, schedule: Q01DX009 (ip), vehicle: distilled water + Tween-80 + alcohol): 98 % of control
- T/C (dose: 200.0 mg/kg/injection, schedule: Q01DX009 (ip), vehicle: distilled water + Tween-80 + alcohol): 86 % of control

Structure (SMILES): CCCCCCC(O)C[N+](=O)[O-] (stereo not drawn)
- T/C (dose: 5.56 mg/kg/injection, schedule: Q01DX009 (ip), vehicle: saline with Tween-80): 102 % of control
- T/C (dose: 8.33 mg/kg/injection, schedule: Q01DX009 (ip), vehicle: saline with Tween-80): 110 % of control
- T/C (dose: 12.5 mg/kg/injection, schedule: Q01DX009 (ip), vehicle: saline with Tween-80): 117 % of control and 124 % of control
- T/C (dose: 18.7 mg/kg/injection, schedule: Q01DX009 (ip), vehicle: saline with Tween-80): 115 % of control
- T/C [4]: 111 % of control
- T/C [5]: 120 % of control

Structure (SMILES): CC(C)SC(=S)Nc1cccc(F)c1
- T/C (dose: 50.0 mg/kg/injection, schedule: Q01DX009 (ip), vehicle: suspension in saline): 107 % of control
- T/C (dose: 100.0 mg/kg/injection, schedule: Q01DX009 (ip), vehicle: suspension in saline): 109 % of control
- T/C (dose: 200.0 mg/kg/injection, schedule: Q01DX009 (ip), vehicle: suspension in saline): 107 % of control

Structure (SMILES): O=C1C(c2cnccn2)=C(O)c2ccccc21
- T/C (dose: 15.0 mg/kg/injection, schedule: Q01DX005 (ip), vehicle: saline with Tween-80): 91 % of control
- T/C (dose: 30.0 mg/kg/injection, schedule: Q01DX005 (ip), vehicle: saline with Tween-80): 97 % of control
- T/C [7]: 100 % of control and 90 % of control

Structure (SMILES): COc1cc(C2C3=C(CC(C)(C)CC3=O)Oc3cc4c(cc32)OCO4)cc(OC)c1OC (stereo not drawn)
- T/C [7]: 97 % of control
- T/C [8]: 98 % of control

Structure (SMILES): COc1cc(C2c3cc4c(cc3OC3(N5CCCC5)CCCCC23)OCO4)cc(OC)c1OC (stereo not drawn)
- T/C [6]: 99 % of control
- T/C (dose: 120.0 mg/kg/injection, schedule: Q01DX005 (ip), vehicle: Klucel (hydroxypropylcellulose) (HPC)): 93 % of control
- T/C (dose: 240.0 mg/kg/injection, schedule: Q01DX005 (ip), vehicle: Klucel (hydroxypropylcellulose) (HPC)): 96 % of control

Structure (SMILES): C=C(C(=O)O)S(=O)(=O)O
- T/C (dose: 7.5 mg/kg/injection, schedule: Q01DX009 (ip), vehicle: saline with Tween-80): 102 % of control
- T/C (dose: 15.0 mg/kg/injection, schedule: Q01DX009 (ip), vehicle: saline with Tween-80): 110 % of control
- T/C (dose: 30.0 mg/kg/injection, schedule: Q01DX009 (ip), vehicle: saline with Tween-80): 114 % of control

Structure (SMILES): C=CCSc1nc2ccc(N3C(=O)C4C5C=CC(C5)C4C3=O)cc2s1 (stereo not drawn)
- T/C [9]: 87 % of control
- T/C [10]: 92 % of control
- T/C [11]: 93 % of control

Structure (SMILES): COc1ccc2nc(-c3ccccc3)cc(N=[N+]=[N-])c2c1
- T/C [7]: 100 % of control
- T/C [8]: 97 % of control
- T/C (dose: 240.0 mg/kg/injection, schedule: Q01DX005 (ip), vehicle: saline with Tween-80): 102 % of control

Structure (SMILES): COC(=O)C12OCC34C(CC5C(C)=C(O)C(=O)CC5(C)C3C(O)C1O)OC(=O)C(OC(=O)C=C(C)C)C24 (stereo not drawn) (tested in a mixture with another compound)
- T/C (dose: 0.03 mg/kg/injection, schedule: Q01DX009 (ip), vehicle: saline + alcohol): 106 % of control
- T/C (dose: 0.06 mg/kg/injection, schedule: Q01DX009 (ip), vehicle: saline + alcohol): 113 % of control
- T/C (dose: 0.13 mg/kg/injection, schedule: Q01DX009 (ip), vehicle: saline + alcohol): 107 % of control
- T/C (dose: 0.25 mg/kg/injection, schedule: Q01DX009 (ip), vehicle: saline + alcohol): 98 % of control
- T/C (dose: 0.5 mg/kg/injection, schedule: Q01DX009 (ip), vehicle: saline + alcohol): 94 % of control
- T/C (dose: 1.0 mg/kg/injection, schedule: Q01DX009 (ip), vehicle: saline + alcohol): 106 % of control
- T/C (dose: 2.0 mg/kg/injection, schedule: Q01DX009 (ip), vehicle: saline + alcohol): 94 % of control

Structure (SMILES): CCCC(=O)N[C@H]1CCc2cc(OC)c(OC)c(OC)c2-c2ccc(SC)c(=O)cc21
- T/C (dose: 0.38 mg/kg/injection, schedule: Q01DX009 (ip), vehicle: distilled water + Tween-80): 156 % of control
- T/C (dose: 0.75 mg/kg/injection, schedule: Q01DX009 (ip), vehicle: distilled water + Tween-80): 160 % of control
- T/C (dose: 0.75 mg/kg/injection, schedule: Q01DX009 (ip), vehicle: water): 182 % of control
- T/C (dose: 1.5 mg/kg/injection, schedule: Q01DX009 (ip), vehicle: water): 231 % of control

Structure (SMILES): CC(C)=NN/C=N/S(C)(=O)=O
- T/C (dose: 100.0 mg/kg/injection, schedule: Q04DX002 (ip), vehicle: saline): 105 % of control
- T/C (dose: 200.0 mg/kg/injection, schedule: Q04DX002 (ip), vehicle: saline): 104 % of control
- T/C (dose: 400.0 mg/kg/injection, schedule: Q04DX002 (ip), vehicle: saline): 104 % of control

Structure (SMILES): O=C1C=CC(=O)c2cc(Cl)c(Cl)cc21
- T/C (dose: 4.12 mg/kg/injection, schedule: Q01DX009 (ip), vehicle: saline with Tween-80): 109 % of control
- T/C (dose: 6.25 mg/kg/injection, schedule: Q01DX009 (ip), vehicle: saline with Tween-80): 113 % of control
- T/C (dose: 6.25 mg/kg/injection, schedule: Q04DX003 (ip), vehicle: saline with Tween-80): 91 % of control
- T/C (dose: 12.5 mg/kg/injection, schedule: Q04DX003 (ip), vehicle: saline with Tween-80): 91 % of control

Structure (SMILES): Cc1nc(C#N)c(=N)n(CCCO)c1-c1ccccc1
- T/C [7]: 109 % of control
- T/C [8]: 101 % of control

Structure (SMILES): CCCCCCCCCCCCN(O)C(=O)c1ccccc1
- T/C [9]: 99 % of control and 115 % of control
- T/C [10]: 104 % of control
- T/C [11]: 108 % of control and 96 % of control
